Assays:
MOLM-14 [1] = assay: Antiproliferative activity against human MOLM-14 cells assessed as inhibition of cell growth incubated for 72 hrs by EZ-Cytox colorimetric assay; type: functional
MOLM-14 [2] = assay: Antiproliferative activity against human MOLM-14 cells harboring FLT3 ITD/D835Y double mutant assessed as inhibition of cell growth incubated for 72 hrs by EZ-Cytox colorimetric assay; type: functional
MV4-11 = assay: Antiproliferative activity against human MV4-11 cells assessed as inhibition of cell growth incubated for 72 hrs by EZ-Cytox colorimetric assay; type: functional
MOLM-14 [3] = assay: Antiproliferative activity against human MOLM-14 cells harboring FLT3 ITD/F691L double mutant assessed as inhibition of cell growth incubated for 72 hrs by EZ-Cytox colorimetric assay; type: functional
[4] = target: Receptor-type tyrosine-protein kinase FLT3 (Homo sapiens, UniProt P36888, D835Y); assay: Inhibition of human recombinant His-tagged FLT3/D835Y mutant expressed in baculovirus expression system incubated for 30 mins in presence of ATP by HTRF analysis
[5] = target: T1, Receptor-type tyrosine-protein kinase FLT3 (Homo sapiens, UniProt P36888); assay: Inhibition of human recombinant His-tagged FLT3 kinase domain (564 to 958 residues) expressed in baculovirus expression system incubated for 30 mins in presence of ATP by HTRF analysis
T1 sequence (P36888 whole entry): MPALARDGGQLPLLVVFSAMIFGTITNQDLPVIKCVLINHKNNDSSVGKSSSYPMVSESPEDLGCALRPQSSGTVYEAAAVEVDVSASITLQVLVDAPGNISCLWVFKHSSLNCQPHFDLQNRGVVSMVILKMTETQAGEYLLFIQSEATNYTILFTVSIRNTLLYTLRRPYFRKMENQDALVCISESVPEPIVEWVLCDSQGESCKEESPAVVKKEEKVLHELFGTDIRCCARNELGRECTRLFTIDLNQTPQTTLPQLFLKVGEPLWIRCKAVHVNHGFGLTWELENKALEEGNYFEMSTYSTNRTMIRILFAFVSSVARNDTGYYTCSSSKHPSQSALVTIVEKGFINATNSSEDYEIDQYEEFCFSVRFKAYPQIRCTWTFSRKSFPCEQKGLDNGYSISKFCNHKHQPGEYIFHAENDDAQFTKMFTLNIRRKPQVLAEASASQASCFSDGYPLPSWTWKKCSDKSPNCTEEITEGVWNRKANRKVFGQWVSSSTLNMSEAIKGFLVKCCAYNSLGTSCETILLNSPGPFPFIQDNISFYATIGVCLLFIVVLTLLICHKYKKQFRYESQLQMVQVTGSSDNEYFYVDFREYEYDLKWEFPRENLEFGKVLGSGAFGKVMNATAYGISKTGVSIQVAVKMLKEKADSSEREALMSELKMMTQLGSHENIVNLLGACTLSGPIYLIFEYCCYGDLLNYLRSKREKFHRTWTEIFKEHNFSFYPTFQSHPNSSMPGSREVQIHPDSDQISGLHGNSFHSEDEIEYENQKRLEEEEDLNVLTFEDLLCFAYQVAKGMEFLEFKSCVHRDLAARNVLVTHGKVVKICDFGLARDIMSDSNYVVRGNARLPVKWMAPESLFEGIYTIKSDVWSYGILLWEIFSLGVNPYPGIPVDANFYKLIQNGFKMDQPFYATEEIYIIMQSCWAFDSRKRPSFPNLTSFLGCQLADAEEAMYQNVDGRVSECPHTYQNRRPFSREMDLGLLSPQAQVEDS

K562 = assay: Antiproliferative activity against human K562 cells assessed as inhibition of cell growth at 1 uM incubated for 72 hrs by EZ-Cytox colorimetric assay relative to control; type: functional
MDA-MB-231 = assay: Antiproliferative activity against human MDA-MB-231 cells assessed as inhibition of cell growth at 1 uM incubated for 72 hrs by EZ-Cytox colorimetric assay relative to control; type: functional
BaF3 [6] = assay: Antiproliferative activity against mouse BaF3 cells harboring FLT3 ITD/F691L double mutant assessed as inhibition of cell growth incubated for 72 hrs by EZ-Cytox colorimetric assay; type: functional
BaF3 [7] = assay: Antiproliferative activity against mouse BaF3 cells harboring FLT3 ITD mutant assessed as inhibition of cell growth incubated for 72 hrs by EZ-Cytox colorimetric assay; type: functional
HepG2 = assay: Antiproliferative activity against human HepG2 cells assessed as inhibition of cell growth at 1 uM incubated for 72 hrs by EZ-Cytox colorimetric assay relative to control; type: functional
HCT-116 = assay: Antiproliferative activity against human HCT-116 cells assessed as inhibition of cell growth at 1 uM incubated for 72 hrs by EZ-Cytox colorimetric assay relative to control; type: functional
PC-3 = assay: Antiproliferative activity against human PC-3 cells assessed as inhibition of cell growth at 1 uM incubated for 72 hrs by EZ-Cytox colorimetric assay relative to control; type: functional
A549 = assay: Antiproliferative activity against human A549 cells assessed as inhibition of cell growth at 1 uM incubated for 72 hrs by EZ-Cytox colorimetric assay relative to control; type: functional
BaF3 [8] = assay: Antiproliferative activity against mouse BaF3 cells harboring FLT3 ITD/D835Y double mutant assessed as inhibition of cell growth incubated for 72 hrs by EZ-Cytox colorimetric assay; type: functional
Huh-7 = assay: Antiproliferative activity against human Huh-7 cells assessed as inhibition of cell growth incubated for 72 hrs by EZ-Cytox colorimetric assay; type: functional
[9] = Half life in ICR mouse at 10 mg/kg, iv measured upto 24 hrs; type: ADME, organism-based; details: in vivo
[10] = Volume of distribution at steady state in ICR mouse at 10 mg/kg, iv measured upto 24 hrs; type: ADME, organism-based; details: in vivo, read-out: Vdss
[11] = Clearance in ICR mouse at 10 mg/kg, iv measured upto 24 hrs; type: ADME, organism-based; details: in vivo
[12] = AUClast in ICR mouse at 10 mg/kg, iv measured upto 24 hrs; type: ADME, organism-based; parameters: time < 24 hrs, dose 10 mg/kg, route iv; details: in vivo

Compound | GI50 (MOLM-14 [1]) | GI50 (MOLM-14 [2]) | GI50 (MV4-11) | IC50 [4] | IC50 [5] | further results
O=C1Nc2ccc(F)cc2/C1=C1/Nc2ccccc2/C1=N\OCCN1CCNCC1 | 25.3 nM | 23.1 nM | 3.69 nM | – | – | GI50 (MOLM-14 [3]): 75.6 nM
COc1ccc2c(c1)/C(=C1/Nc3ccccc3/C1=N\OCC(=O)N1CCNCC1)C(=O)N2 | 40.4 nM | 36.4 nM | 8.39 nM | 1.61 nM | 1.66 nM | –
O=C(CO/N=C1/C(=C2/C(=O)Nc3ccc(F)cc32)Nc2ccccc21)NC1CCNCC1 | 18.6 nM | 25.8 nM | 3.27 nM | 2.16 nM | 2.62 nM | –
O=C(CO/N=C1/C(=C2/C(=O)Nc3ccccc32)Nc2ccccc21)N[C@H]1CCNC1 | 5.35 nM | 4.88 nM | 0.68 nM | 0.2 nM | 0.64 nM | GI50 (MOLM-14 [3]): 10.7 nM
O=C1Nc2ccc(I)cc2/C1=C1/Nc2ccccc2/C1=N\OCC(=O)N1CCNCC1 | 23.7 nM | 20.9 nM | 3.72 nM | 0.45 nM | 0.8 nM | –
CN1CC[C@@H](NC(=O)CO/N=C2/C(=C3/C(=O)Nc4ccccc43)Nc3ccccc32)C1 | 30.2 nM | 28.6 nM | 10.5 nM | 2.19 nM | 1.4 nM | –
CCc1nc(C(N)=O)c(Nc2ccc(N3CCC(N4CCN(C)CC4)CC3)c(OC)c2)cc1NC1CCOCC1 | 35.4 nM | 19.4 nM | 8.2 nM | – | – | inhibition at 1 µM (K562): 74.6%; inhibition at 1 µM (MDA-MB-231): 42.1%; GI50 (BaF3 [6]): 38 nM; GI50 (BaF3 [7]): 1.9 nM; inhibition at 1 µM (HepG2): 46.9%; inhibition at 1 µM (HCT-116): 47.7%; inhibition at 1 µM (PC-3): 44.3%; inhibition at 1 µM (A549): 4.31%; GI50 (BaF3 [8]): 2.45 nM; GI50 (Huh-7): 435 nM; GI50 (MOLM-14 [3]): 70.1 nM
CN1CC[C@H](NC(=O)CO/N=C2/C(=C3/C(=O)Nc4ccccc43)Nc3ccccc32)C1 | 22.1 nM | 21.1 nM | 6.12 nM | 1.91 nM | 2.01 nM | –
NC1CCN(C(=O)CO/N=C2/C(=C3/C(=O)Nc4ccc(Cl)cc43)Nc3ccccc32)CC1 | 40.3 nM | 43.2 nM | 10.5 nM | 1.34 nM | 1.82 nM | –
CN1CCC(NC(=O)CO/N=C2/C(=C3/C(=O)Nc4ccccc43)Nc3ccccc32)CC1 | 133 nM | 56.3 nM | 43.6 nM | 53.5 nM | 15.8 nM | –
CN1CCC(NC(=O)CO/N=C2/C(=C3/C(=O)Nc4ccc(F)cc43)Nc3ccccc32)CC1 | 75.9 nM | 60.6 nM | 38.7 nM | 14.3 nM | 7.31 nM | –
NC1CCN(C(=O)CO/N=C2/C(=C3/C(=O)Nc4ccccc43)Nc3ccccc32)CC1 | 48.6 nM | 38.9 nM | 17.3 nM | 3.07 nM | 2.07 nM | –
O=C1Nc2ccc(F)cc2/C1=C1/Nc2ccccc2/C1=N\OCCC(=O)N1CCNCC1 | 111 nM | 112 nM | 29.5 nM | 3.41 nM | 1.23 nM | –
O=C(CO/N=C1/C(=C2/C(=O)Nc3ccc(Cl)cc32)Nc2ccccc21)NC1CCNCC1 | 8.56 nM | 35.1 nM | 1.08 nM | 1.08 nM | 1.18 nM | –
CN1CC(NC(=O)CO/N=C2/C(=C3/C(=O)Nc4ccccc43)Nc3ccccc32)C1 | 17.4 nM | 17.9 nM | 2.61 nM | 0.75 nM | 0.79 nM | –
O=C1Nc2ccccc2/C1=C1/Nc2ccccc2/C1=N\OCCC(=O)N1CCNCC1 | – | – | – | 2.89 nM | – | –

Compound | GI50 (MOLM-14 [1]) | GI50 (MOLM-14 [2]) | GI50 (MV4-11) | IC50 [4] | IC50 [5] | further results
O=C1Nc2ccc(Cl)cc2/C1=C1/Nc2ccccc2/C1=N\OCC(=O)N1CCNCC1 | 7.22 nM | 12.7 nM | 0.76 nM | 0.2 nM | 0.27 nM | –
Cl.O=C(CO/N=C1/C(=C2/C(=O)Nc3ccccc32)Nc2ccccc21)N[C@@H]1CCNC1 | 2.73 nM | 3.49 nM | 0.52 nM | 0.2 nM | 0.29 nM | half-life [9]: 3.7 h; Vd [10]: 103 L/kg; GI50 (MOLM-14 [3]): 3.23 nM; clearance [11]: 323 mL/min/kg; AUC(0-t) at 24 h [12]: 367 ng·h/mL
O=C1Nc2ccc(F)cc2/C1=C1/Nc2ccccc2/C1=N\OCCS(=O)(=O)N1CCNCC1 | – | – | 842 nM | > 50 nM | > 50 nM | –
CN1CCC(NC(=O)CO/N=C2/C(=C3/C(=O)Nc4ccc(Cl)cc43)Nc3ccccc32)CC1 | 67 nM | 123 nM | 16.2 nM | 21.2 nM | 15 nM | –
CN1CCN(C(=O)CO/N=C2/C(=C3/C(=O)Nc4ccc(Cl)cc43)Nc3ccccc32)CC1 | 103 nM | 59.1 nM | 18.3 nM | 0.39 nM | 1.3 nM | –
O=C(CO/N=C1/C(=C2/C(=O)Nc3ccccc32)Nc2ccccc21)NC1CCNCC1 | 25.6 nM | 23.8 nM | 7.01 nM | 1.12 nM | 2.02 nM | –
O=C(CO/N=C1/C(=C2/C(=O)Nc3ccccc32)Nc2ccccc21)NC1CNC1 | 19.6 nM | 22.3 nM | 4.95 nM | 3.25 nM | 4.95 nM | –
CN1CCN(C(=O)CO/N=C2/C(=C3/C(=O)Nc4ccccc43)Nc3ccccc32)CC1 | 27.8 nM | 23.5 nM | 12.2 nM | 0.52 nM | 1.17 nM | –
O=C1Nc2ccc(OC(F)(F)F)cc2/C1=C1/Nc2ccccc2/C1=N\OCC(=O)N1CCNCC1 | 71.9 nM | 87.5 nM | 27.4 nM | 1.62 nM | 3.65 nM | –
O=C1Nc2ccc(F)cc2/C1=C1/Nc2ccccc2/C1=N\OCC(=O)N1CCNCC1 | 7.17 nM | 7.13 nM | 1.23 nM | 0.18 nM | 0.29 nM | –
O=C1Nc2ccc(F)cc2/C1=C1/Nc2ccccc2/C1=N\OCS(=O)(=O)N1CCNCC1 | 46.2 nM | 30.8 nM | 9.58 nM | 2.71 nM | 3.29 nM | –
NC1CCN(C(=O)CO/N=C2/C(=C3/C(=O)Nc4ccc(F)cc43)Nc3ccccc32)CC1 | 36.7 nM | 28.1 nM | 9.76 nM | 3.45 nM | 2.54 nM | –
CN1CCN(C(=O)CO/N=C2/C(=C3/C(=O)Nc4ccc(F)cc43)Nc3ccccc32)CC1 | 28 nM | 26.1 nM | 6.49 nM | 0.35 nM | 0.93 nM | –
O=C1Nc2ccccc2/C1=C1/Nc2ccccc2/C1=N\OCS(=O)(=O)N1CCNCC1 | – | – | – | 3.78 nM | – | –
O=C1Nc2ccc(Br)cc2/C1=C1/Nc2ccccc2/C1=N\OCC(=O)N1CCNCC1 | 13.9 nM | 16.1 nM | 1.27 nM | 0.22 nM | 0.67 nM | –
